Experimental data taken from patent US4820694A, “Modifications of 3-O-demethylmycinose in macrocin and lactenocin” (priority 1986, dated 1989).
Values after ≈ are worked out from the molar mass of the structure shown.

What was measured:
[1] = test system: Staphylococcus aureus S13E; assay: microbe, parasite or virus in culture; assay type: cell-based; settings: Staphylococcus aureus, S13E
Description: (§1) The MIC's in Table III were determined by standard agar-dilution assays. The MIC's in Table IV were obtained using conventional brothdilution microtiter tests.

[2] = test system: Streptococcus pneumoniae Park I; assay: microbe, parasite or virus in culture; assay type: cell-based; settings: Streptococcus pneumoniae
Description: as §1

[3] = test system: Pasteurella multocida 17E; assay: broth-dilution microtiter MIC test; assay type: cell-based; settings: Pasteurella multocida, 17E
Description: as §1

[4] = test system: Pasteurella hemolytica 23C; assay: broth-dilution microtiter MIC test; assay type: cell-based; settings: Pasteurella, 23C; broth-dilution microtiter; read-out: MIC
Description: as §1

[5] = test system: Staphylococcus aureus 19C; assay: broth-dilution microtiter MIC test; assay type: cell-based; settings: Staphylococcus aureus, 19C
Description: as §1

[6] = test system: Mycoplasma gallisepticum 29C; assay: broth-dilution microtiter MIC test; assay type: cell-based; settings: Mycoplasmoides gallisepticum, 29C
Description: as §1

[7] = test system: Pasteurella multocida 22A; assay: broth-dilution microtiter MIC test; assay type: cell-based; settings: Pasteurella multocida, 22A
Description: as §1

Mycoplasma hyorhinis 29E = assay: broth-dilution microtiter MIC test; assay type: cell-based; settings: Mycoplasma, 29E
Description: as §1

[8] = test system: Pasteurella multocida 60A; assay: broth-dilution microtiter MIC test; assay type: cell-based; settings: Pasteurella multocida, 60A
Description: as §1

[9] = test system: Pasteurella hemolytica 41D; assay: broth-dilution microtiter MIC test; assay type: cell-based; settings: Pasteurella, 41D; broth-dilution microtiter; read-out: MIC
Description: as §1

[10] = test system: Mycoplasma gallisepticum 15E; assay: broth-dilution microtiter MIC test; assay type: cell-based; settings: Mycoplasmoides gallisepticum, 15E
Description: as §1

[11] = test system: Pasteurella multocida 68C; assay: broth-dilution microtiter MIC test; assay type: cell-based; settings: Pasteurella multocida, 68C
Description: as §1

[12] = test system: Pasteurella hemolytica 22C; assay: broth-dilution microtiter MIC test; assay type: cell-based; settings: Pasteurella, 22C; broth-dilution microtiter; read-out: MIC
Description: as §1

Mycoplasma synoviae 40A = assay: broth-dilution microtiter MIC test; assay type: cell-based; settings: Mycoplasmopsis synoviae, 40A
Description: as §1

[13] = test system: Bordetella bronchiseptica; assay: broth-dilution microtiter MIC test; assay type: cell-based; settings: Bordetella bronchiseptica; broth-dilution microtiter; read-out: MIC
Description: as §1

[14] = test system: Pasteurella multocida 40G; assay: broth-dilution microtiter MIC test; assay type: cell-based; settings: Pasteurella multocida, 40G
Description: as §1

Streptococcus sp. 19F = assay: broth-dilution microtiter MIC test; assay type: cell-based; settings: Streptococcus, SP.19F
Description: as §1

[15] = test system: Mycoplasma gallisepticum 36H; assay: broth-dilution microtiter MIC test; assay type: cell-based; settings: Mycoplasmoides gallisepticum, 36H
Description: as §1

Pasteurella multocida = Pasteurella multocida infection in one-day-old chicks; assay type: in vivo; settings: subcutaneously, 30 mg/kg × 2, 1 and 4 hours post-challenge
Description: Some of the formula 1 compounds have also shown in vivo antibacterial activity against infections induced by Gram-negative bacteria. Table VI summarizes the results of tests in which illustrative compounds were evaluated against a Pasteurella infection in one-day-old chicks. The compounds were administered by subcutaneous injection at a dosage of 30 mg/kg, 1 and 4 hours post-challenge of the chicks with Pasteurella multocida (0.1 ml of a 10^-4 dilution of a twenty-hour tryptose broth culture of an avian P. multocida given subcutaneously). In these tests, unless indicated otherwise, all non-medicated infected chicks died within 24 hours of Pasteurella challenge.
^a Administered subcutaneously; 30 mg/kg × 2

[16] = test system: Pseudomonas aeruginosa X239; assay: standard agar-dilution MIC assay; assay type: cell-based; settings: Pseudomonas aeruginosa, X239; agar-dilution; read-out: MIC
Description: as §1

[17] = test system: Streptococcus Group D X66; assay: standard agar-dilution MIC assay; assay type: cell-based; settings: read-out: MIC
Description: as §1

Escherichia coli EC14 = assay: standard agar-dilution MIC assay; assay type: cell-based; settings: agar-dilution, read-out: MIC
Description: as §1

[18] = test system: Staphylococcus epidermidis EP12; assay: standard agar-dilution MIC assay; assay type: cell-based
Description: as §1

[19] = test system: Streptococcus Group D 9960; assay: standard agar-dilution MIC assay; assay type: cell-based; settings: GROUPD9960, read-out: MIC
Description: as §1

[20] = test system: Staphylococcus epidermidis EPI1; assay: standard agar-dilution MIC assay; assay type: cell-based; settings: Staphylococcus epidermidis, EPI1
Description: as §1

[21] = test system: Klebsiella pneumoniae X68; assay: standard agar-dilution MIC assay; assay type: cell-based; settings: Klebsiella pneumoniae, X68; agar-dilution; read-out: MIC
Description: as §1

[22] = test system: Staphylococcus aureus V41; assay: standard agar-dilution MIC assay; assay type: cell-based; settings: Staphylococcus aureus, V41
Description: as §1

[23] = test system: Streptococcus pyogenes C203; assay: standard agar-dilution MIC assay; assay type: cell-based; settings: Streptococcus pyogenes, C203
Description: as §1

[24] = test system: Staphylococcus aureus X1.1; assay: standard agar-dilution MIC assay; assay type: cell-based; settings: Staphylococcus aureus, X1.1
Description: as §1

[25] = test system: Staphylococcus aureus X400; assay: standard agar-dilution MIC assay; assay type: cell-based; settings: Staphylococcus aureus, X400
Description: as §1

[26] = test system: Streptococcus pyogenes C203; assay: protection of mice experimentally infected with S. pyogenes C203; assay type: in vivo; settings: C203, sc, Subcutaneous, mice, mg/kg × 2, doses given 1 and 4 hours postinfection, read-out: ED50
Method in brief: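 Mice experimentally infected with S. pyogenes C203 got two doses of test compound, at 1 and 4 h postinfection. The ED50 is the dose in mg/kg (per dose, given twice) that protected 50% of the animals.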

SMILES: CCC1OC(=O)CC(O)C(C)C(OC2OC(C)C(O)C(N(C)C)C2OC(C)=O)C(CC=O)CC(C)C(=O)C=CC(C)=CC1COC1OC(C)C(OC(C)=O)C(OC(C)=O)C1OC (stereo not shown) [Compound 23, 2',3",4"-Tri-O-acetyl-lactenocin]
- MIC [1]: 2 µg/mL (≈ 2.26 µM)
- MIC [2]: 2 µg/mL (≈ 2.26 µM)
- MIC [3]: 25 µg/mL (≈ 28.3 µM)
- MIC [4]: > 50 µg/mL
- MIC [5]: 6.25 µg/mL (≈ 7.07 µM)
- MIC [6]: 1.56 µg/mL (≈ 1.76 µM)
- MIC [7]: 50 µg/mL (≈ 56.6 µM)
- MIC (Mycoplasma hyorhinis 29E): 12.5 µg/mL (≈ 14.1 µM)
- MIC [8]: 50 µg/mL (≈ 56.6 µM)
- MIC [9]: > 50 µg/mL
- MIC [10]: 50 µg/mL (≈ 56.6 µM)
- MIC [11]: 25 µg/mL (≈ 28.3 µM)
- MIC [12]: > 50 µg/mL
- MIC (Mycoplasma synoviae 40A): 6.25 µg/mL (≈ 7.07 µM)
- MIC [13]: > 50 µg/mL
- MIC [14]: 50 µg/mL (≈ 56.6 µM)
- MIC (Streptococcus sp. 19F): 1.56 µg/mL (≈ 1.76 µM)
- MIC [15]: 50 µg/mL (≈ 56.6 µM)
- Number of Deaths/Number Treated (Pasteurella multocida): 10/10
- MIC [16]: > 128 µg/mL
- MIC [17]: 8 µg/mL (≈ 9.05 µM)
- MIC (Escherichia coli EC14): > 128 µg/mL
- MIC [18]: 2 µg/mL (≈ 2.26 µM)
- MIC [19]: 4 µg/mL (≈ 4.52 µM)
- MIC [20]: 2 µg/mL (≈ 2.26 µM)
- MIC [21]: > 128 µg/mL
- MIC [22]: 2 µg/mL (≈ 2.26 µM)
- MIC [23]: 2 µg/mL (≈ 2.26 µM)
- MIC [24]: 2 µg/mL (≈ 2.26 µM)
- MIC [25]: 4 µg/mL (≈ 4.52 µM)
- ED50 [26]: 6.8 mg/kg
